Results from patent US9850245B2 (Merck Sharp & Dohme Corp., priority 2014, dated 2017).
Structures can show the parent of a compound that is named as a salt.

Target: ROMK (Homo sapiens (Human), UniProt P48048)
Test: Thallium Flux Assay
Format: cell-based
Method: A Thallium Flux Assay was performed on the compounds of the Examples. This assay has been described previously; see, e.g., PCT Published Application WO 2013/062900.

ROMK, sequence (P48048 whole entry): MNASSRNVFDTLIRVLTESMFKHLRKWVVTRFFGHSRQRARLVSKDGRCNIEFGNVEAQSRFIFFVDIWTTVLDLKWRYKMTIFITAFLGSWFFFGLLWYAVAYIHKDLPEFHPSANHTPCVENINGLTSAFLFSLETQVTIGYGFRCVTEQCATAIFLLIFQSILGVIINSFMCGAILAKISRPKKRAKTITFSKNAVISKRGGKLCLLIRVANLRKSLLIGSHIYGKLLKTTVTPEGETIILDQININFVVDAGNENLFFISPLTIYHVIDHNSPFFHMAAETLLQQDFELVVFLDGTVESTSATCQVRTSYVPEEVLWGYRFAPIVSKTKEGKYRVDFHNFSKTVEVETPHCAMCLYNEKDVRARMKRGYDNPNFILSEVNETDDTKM

Row | Compound | IC50 [µM]
1 | CC1=C(N2CCN(C)C3(CCN(CC(O)c4ccc(-n5cnnn5)nc4C)CC3)C2=O)COC1=O (single isomer, unassigned) [Example 35A, 9-(2-hydroxy-2-(2-methyl-6-(1H-tetrazol-1-yl)pyridin-3-yl)ethyl)-1-methyl-4-(4-methyl-5-oxo-2,5-dihydrofuran-3-yl)-1,4,9-triazaspiro[5.5]undecan-5-one] | 0.0418
2 | CC1=C(N2CCN(C)C3(CCN(CC(O)c4ccc(-n5cnnn5)nc4C)CC3)C2=O)COC1=O (single isomer, unassigned) [Example 35B, 9-(2-hydroxy-2-(2-methyl-6-(1H-tetrazol-1-yl)pyridin-3-yl)ethyl)-1-methyl-4-(4-methyl-5-oxo-2,5-dihydrofuran-3-yl)-1,4,9-triazaspiro[5.5]undecan-5-one] | 0.144
3 | CC1=C(N2CCCOC3(CCN(CC(O)c4ccc(-n5cnnn5)nc4C)CC3)C2=O)COC1=O (single isomer, unassigned) [Example 38, 3-(2-hydroxy-2-(2-methyl-6-(1H-tetrazol-1-yl)pyridin-3-yl)ethyl)-11-(4-methyl-5-oxo-2,5-dihydrofuran-3-yl)-7-oxa-3,11-diazaspiro[5.6]dodecan-12-one] | 0.526
4 | CC1=C(N2CCOC3(CCN(CC(O)c4cnc(-n5cnnn5)cn4)CC3)CC2)COC1=O (single isomer, unassigned) [Example 40, 4-(3-(2-(5-(1H-tetrazol-1-yl)pyrazin-2-yl)-2-hydroxyethyl)-7-oxa-3,10-diazaspiro[5.6]dodecan-10-yl)-3-methylfuran-2(5H)-one] | 0.118
5 | CC1=C(N2CCOC3(CCN(C[C@H](O)c4ccc5c(c4C)COC5=O)CC3)CC2)COC1=O (single isomer, unassigned) [Example 41] | 0.0322
6 | CC1=C(N2CCOC3(CCN(CC(O)c4ccc(-n5cnnn5)cn4)CC3)C2=O)COC1=O (single isomer, unassigned) [Example 43, 9-(2-(5-(1H-tetrazol-1-yl)pyridin-2-yl)-2-hydroxyethyl)-4-(4-methyl-5-oxo-2,5-dihydrofuran-3-yl)-1-oxa-4,9-diazaspiro[5.5]undecan-5-one] | 0.0372
7 | CC1=C(N2CCOC3(CC4CCC(C3)N4CC(O)c3cnc(-n4cnnn4)cn3)C2=O)COC1=O (single isomer, unassigned) [Example 44] | 0.478
8 | CC1=C(N2CCOC3(CCN(CC(O)c4cnc(-n5cnnn5)nc4)CC3)C2=O)COC1=O (single isomer, unassigned) [Example 46B, 9-(2-(2-(1H-tetrazol-1-yl)pyrimidin-5-yl)-2-hydroxyethyl)-4-(4-methyl-5-oxo-2,5-dihydrofuran-3-yl)-1-oxa-4,9-diazaspiro[5.5]undecan-5-one] | 0.0581
9 | CC1=C(N2CCOC3(CCN(CC(O)c4cnc(-n5cnnn5)cn4)CC3)C2)COC1=O (single isomer, unassigned) [Example 48A, 4-(9-(2-(5-(1H-tetrazol-1-yl)pyrazin-2-yl)-2-hydroxyethyl)-1-oxa-4,9-diazaspiro[5.5]undecan-4-yl)-3-methylfuran-2(5H)-one] | 0.462
10 | CC1=C(N2CCOC3(CCN(CC(O)c4cnc(-n5cnnn5)cn4)CC3)C2)COC1=O (single isomer, unassigned) [Example 48B, 4-(9-(2-(5-(1H-tetrazol-1-yl)pyrazin-2-yl)-2-hydroxyethyl)-1-oxa-4,9-diazaspiro[5.5]undecan-4-yl)-3-methylfuran-2(5H)-one] | 0.245
11 | CC1=C(N2CC3(CCN(CC(O)c4ccc(-n5cnnn5)nc4C)CC3)OCC2=O)COC1=O (single isomer, unassigned) [Example 60, 9-(2-hydroxy-2-(2-methyl-6-(1H-tetrazol-1-yl)pyridin-3-yl)ethyl)-4-(4-methyl-5-oxo-2,5-dihydrofuran-3-yl)-1-oxa-4,9-diazaspiro[5.5]undecan-3-one] | 0.0484
12 | CC1=C(N2CCNC3(CCN(C[C@H](O)c4ccc5c(c4C)COC5=O)CC3)C2=O)COC1=O [Example 1, 9-[(2R)-2-hydroxy-2-(4-methyl-1-oxo-1,3-dihydro-2-benzofuran-5-yl)ethyl]-4-(4-methyl-5-oxo-2,5-dihydrofuran-3-yl)-1,4,9-triazaspiro[5.5]undecan-5-one dihydrochloride] | 0.0687
13 | CC1=C(N2CCNC3(CCN(C[C@@H](O)c4ccc(-n5cnnn5)nc4)CC3)C2=O)COC1=O [Example 4B, (S)-9-(2-(6-(1H-tetrazol-1-yl)pyridin-3-yl)-2-hydroxyethyl)-4-(4-methyl-5-oxo-2,5-dihydrofuran-3-yl)-1,4,9-triazaspiro[5.5]undecan-5-one] | 0.0631
14 | CC1=C(N2CC(F)(F)OC3(CCN(C[C@H](O)c4ccc(-n5cnnn5)nc4)CC3)C2)COC1=O [Example 7A, (R)-4-(9-(2-(6-(1H-tetrazol-1-yl)pyridin-3-yl)-2-hydroxyethyl)-2,2-difluoro-1-oxa-4,9-diazaspiro[5.5]undecan-4-yl)-3-methylfuran-2(5H)-one] | 0.416
15 | CC1=C(N2CC(F)(F)OC3(CCN(C[C@@H](O)c4ccc(-n5cnnn5)nc4)CC3)C2)COC1=O [Example 7B, (S)-4-(9-(2-(6-(1H-tetrazol-1-yl)pyridin-3-yl)-2-hydroxyethyl)-2,2-difluoro-1-oxa-4,9-diazaspiro[5.5]undecan-4-yl)-3-methylfuran-2(5H)-one] | 0.688
16 | CC1=C(N2CCOC3(CCN(C[C@@H](O)c4ccc5c(c4C)COC5=O)CC3)C2=O)COC1=O [Example 8B, (S)-9-(2-hydroxy-2-(4-methyl-1-oxo-1,3-dihydroisobenzofuran-5-yl)ethyl)-4-(4-methyl-5-oxo-2,5-dihydrofuran-3-yl)-1-oxa-4,9-diazaspiro[5.5]undecan-5-one] | 0.0899
17 | O=C1C=C(N2CCOC3(CCN(C[C@H](O)c4ccc(-n5cnnn5)nc4)CC3)C2=O)CO1 [Example 12, (R)-9-(2-(6-(1H-tetrazol-1-yl)pyridin-3-yl)-2-hydroxyethyl)-4-(5-oxo-2,5-dihydrofuran-3-yl)-1-oxa-4,9-diazaspiro[5.5]undecan-5-one] | 0.161
18 | CC1=C(N2CCOC3(CCCN(C[C@@H](O)c4ccc(-n5cnnn5)nc4)CC3)C2=O)COC1=O (stereo partly drawn) [Example 15, 9-((S)-2-(6-(1H-tetrazol-1-yl)pyridin-3-yl)-2-hydroxyethyl)-4-(4-methyl-5-oxo-2,5-dihydrofuran-3-yl)-1-oxa-4,9-diazaspiro[5.6]dodecan-5-one] | 0.28
19 | Cc1c([C@@H](O)CN2CCC3(CC2)CN(C2=C(Cl)C(=O)OC2)CCO3)ccc2c1COC2=O [Example 23, (R)-5-(2-(4-(4-chloro-5-oxo-2,5-dihydrofuran-3-yl)-1-oxa-4,9-diazaspiro[5.5]undecan-9-yl)-1-hydroxyethyl)-4-methylisobenzofuran-1(3H)-one] | 0.0591
20 | O=C1OCC(N2CCOC3(CCN(C[C@H](O)c4ccc(-n5cnnn5)nc4)CC3)C2)=C1Cl [Example 24A] | 0.0115
21 | O=C1OCC(N2CCOC3(CCN(C[C@@H](O)c4ccc(-n5cnnn5)nc4)CC3)C2)=C1Cl [Example 24B] | 0.0345
22 | O=C1C=C(N2CCC3(CCN(C[C@H](O)c4ccc(-n5cnnn5)nc4)CC3)OC2=O)CO1 [Example 26A, (R)-9-(2-(6-(1H-tetrazol-1-yl)pyridin-3-yl)-2-hydroxyethyl)-3-(5-oxo-2,5-dihydrofuran-3-yl)-1-oxa-3,9-diazaspiro[5.5]undecan-2-one] | 0.171
23 | O=C1OCC(N2CCOC3(CCN(C[C@H](O)c4ccc(-n5cnnn5)nc4)CC3)C2)=C1C1CC1 [Example 28A, (R)-4-(9-(2-(6-(1H-tetrazol-1-yl)pyridin-3-yl)-2-hydroxyethyl)-1-oxa-4,9-diazaspiro[5.5]undecan-4-yl)-3-cyclopropylfuran-2(5H)-one] | 0.224
24 | O=C1OCC(N2CCOC3(CCN(C[C@@H](O)c4ccc(-n5cnnn5)nc4)CC3)C2)=C1C1CC1 [Example 28B, (S)-4-(9-(2-(6-(1H-tetrazol-1-yl)pyridin-3-yl)-2-hydroxyethyl)-1-oxa-4,9-diazaspiro[5.5]undecan-4-yl)-3-cyclopropylfuran-2(5H)-one] | 0.63
25 | CC1=C(N2CCCOC3(CCN(C[C@H](O)c4ccc5c(c4C)COC5=O)CC3)C2=O)COC1=O [Example 37, (R)-3-(2-hydroxy-2-(4-methyl-1-oxo-1,3-dihydroisobenzofuran-5-yl)ethyl)-11-(4-methyl-5-oxo-2,5-dihydrofuran-3-yl)-7-oxa-3,11-diazaspiro[5.6]dodecan-12-one] | 0.285
26 | CC1=C(N2CCOC3(CC4CCC(C3)N4C[C@H](O)c3ccc4c(c3C)COC4=O)C2=O)COC1=O (stereo partly drawn) [Example 42, (1R,2′R,5S)-8-((R)-2-hydroxy-2-(4-methyl-1-oxo-1,3-dihydroisobenzofuran-5-yl)ethyl)-4′-(4-methyl-5-oxo-2,5-dihydrofuran-3-yl)-8-azaspiro[bicyclo[3.2.1]octane-3,2′-morpholin]-3′-one] | 0.0874
27 | CC1=C(N2CCOC3(CC4CCC(C3)N4C[C@H](O)c3ccc(-n4cnnn4)nc3)C2=O)COC1=O (stereo partly drawn) [Example 47, (1R,2′R,5S)-8-((R)-2-(6-(1H-tetrazol-1-yl)pyridin-3-yl)-2-hydroxyethyl)-4′-(4-methyl-5-oxo-2,5-dihydrofuran-3-yl)-8-azaspiro[bicyclo[3.2.1]octane-3,2′-morpholin]-3′-one] | 0.00957
28 | CC1=C(N2CCOC3(CCN(CCc4ccc5c(c4C)COC5=O)CC3)C2=O)COC1=O [Example 49, 9-(2-(4-methyl-1-oxo-1,3-dihydroisobenzofuran-5-yl)ethyl)-4-(4-methyl-5-oxo-2,5-dihydrofuran-3-yl)-1-oxa-4,9-diazaspiro[5.5]undecan-5-one] | 0.0524
29 | CC1=C(N2CCOC3(CCN(CCc4cnc(-n5cnnn5)cn4)CC3)C2=O)COC1=O [Example 52, 9-(2-(5-(1H-tetrazol-1-yl)pyrazin-2-yl)ethyl)-4-(4-methyl-5-oxo-2,5-dihydrofuran-3-yl)-1-oxa-4,9-diazaspiro[5.5]undecan-5-one] | 0.0393
30 | CC1=C(N2CCOC3(CCN(CCc4ccc(-n5cnnn5)nc4)CC3)C2=O)COC1=O [Example 53, 9-(2-(6-(1H-tetrazol-1-yl)pyridin-3-yl)ethyl)-4-(4-methyl-5-oxo-2,5-dihydrofuran-3-yl)-1-oxa-4,9-diazaspiro[5.5]undecan-5-one] | 0.0131
